Results as given in patent publication US20060069132A1, “Azolecarboxamide herbicides” (priority 2004, published 2006).

Experiments:
rice = assay: Test C flooded paddy test; assay type: in vivo, Oryza sativa; settings: for Plant response rating, Rice: visual rating after 12 to 14 days
Summary of the method: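 Injury scored visually against controls on a 0 (no effect) to 100 (complete control) scale, 12 to 14 days after treatment in greenhouse. Flooded paddy plants treated at 2-leaf stage; postemergence plants at 1- to 4-leaf stage, 2 to 18 cm tall.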

barnyardgrass [1] = assay: Test C flooded paddy test; assay type: in vivo, Echinochloa crus-galli; settings: for Plant response rating, Barnyardgrass: visual rating after 12 to 14 days
Summary of the method: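 Ratings (0 = no effect, 100 = complete control) come from visual comparison with untreated plants after 12 to 14 days in the greenhouse. Treatment was postemergence at the 1- to 4-leaf stage (2–18 cm), or at the 2-leaf stage for the flooded paddy barnyardgrass.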

large crabgrass = assay: Test C pre-/postemergence herbicide test; assay type: in vivo, Digitaria sanguinalis; settings: for Crabgrass, Large plant response rating: 500 g ai/ha
Summary of the method: (§1)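 Pre/post spray; non-phytotoxic solvent + surfactant. Post-timing 1–4 leaves, 2–18 cm. Read-out: visual % control vs untreated, day 12–14, greenhouse.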

barnyardgrass [2] = assay: Test B flooded paddy test; assay type: in vivo, Echinochloa crus-galli; settings: 1000 g ai/ha, visual rating, scale 0 to 100 (0 no effect, 100 complete control), 13 to 15 days
Summary of the method: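 Scale 0–100: zero equals no visible effect, 100 complete control, judged by eye relative to controls. Timing: 13 to 15 days in greenhouse post-treatment. Growth stage at spraying: two leaves (paddy) or one to four leaves, 2–18 cm (postemergence).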

giant foxtail = assay: Test A pre-/postemergence herbicide test; assay type: in vivo, Setaria faberi
Summary of the method: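 Greenhouse injury scoring (0–100, complete control = 100) at approximately ten days follows simultaneous pre- and postemergence application. Soil received a directed spray after seeding; seedlings of 2–10 cm at the one- to two-leaf stage were sprayed to runoff.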

yellow nutsedge = assay: Test C pre-/postemergence herbicide test; assay type: in vivo, Cyperus esculentus; settings: for Nutsedge, Yellow plant response rating: 500 g ai/ha
Summary of the method: as §1

wheat = assay: Test B postemergence herbicide test; assay type: in vivo, Triticum aestivum; set-up: key to Wheat plant response rating: 0 = no effect, 100 = complete control; settings: scale 0 (no effect) to 100 (complete control); for Plant response rating, Wheat: Postemergence, 500 g ai/ha, visual rating after 13 to 15 days; for Wheat plant response rating: postemergence, 125 g ai/ha, visual rating
Summary of the method: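 Each value is a visual 0–100 response rating taken against controls 13 to 15 days after treatment in the greenhouse. Plants received formulated chemical postemergence at the 1- to 4-leaf stage or, in flooded paddy, at the 2-leaf stage.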

eastern black nightshade = assay: Test C pre-/postemergence herbicide test; assay type: in vivo, Solanum ptycanthum; settings: for Plant response rating (0 = no effect, 100 = complete control), Nightshade: 62 g ai/ha; for Plant response rating (0 = no effect, 100 = complete control), Nightshade / Plant response rating, Nightshade: preemergence; for Nightshade plant response rating: Preemergence, 500 g ai/ha, scale 0 to 100, 0 no effect, 100 complete control
Summary of the method: as §1

woolly cupgrass = assay: Test C pre-/postemergence herbicide test; assay type: in vivo, Eriochloa villosa; settings: for Cupgrass, Woolly plant response rating: 500 g ai/ha
Summary of the method: as §1

[3] = 62 g ai/ha, scale 0 to 100 (0 no effect, 100 complete control)
[4] = 125 g ai/ha, scale of 0 to 100, 0 is no effect, 100 is complete control
[5] = 250 g ai/ha, scale 0 to 100 (0 no effect, 100 complete control)
[6] = 500 g ai/ha, scale 0 to 100 (0 no effect, 100 complete control)
[7] = 125 g ai/ha, scale 0-100, preemergence
[8] = 250 g ai/ha, scale 0 to 100 (0 no effect, 100 complete control), visual, 12 to 14 days, preemergence
[9] = Postemergence, 125 g ai/ha, scale 0 to 100, 0 no effect, 100 complete control
[10] = Postemergence, 250 g ai/ha, scale 0 to 100, 0 no effect, 100 complete control
[11] = Preemergence, scale 0 to 100, 0 no effect, 100 complete control
[12] = postemergence, 62 g ai/ha, scale 0 to 100
[13] = postemergence, 125 g ai/ha, scale 0 to 100
[14] = 250 g ai/ha, scale 0 to 100 (0 no effect, 100 complete control), visual, 12 to 14 days
[15] = Postemergence, 500 g ai/ha, 0 to 100 scale, 0 no effect, 100 complete control
[16] = Postemergence, 2000 g ai/ha, 0 to 100 scale, 0 no effect, 100 complete control
[17] = Preemergence, 500 g ai/ha, visual rating, 0 to 100 scale (0 no effect, 100 complete control)
[18] = Preemergence, 2000 g ai/ha, 0 to 100 scale, 0 no effect, 100 complete control
[19] = 250 g ai/ha, scale of 0 to 100, 0 is no effect, 100 is complete control
[20] = 31 g ai/ha, preemergence, scale 0 to 100
[21] = 125 g ai/ha, scale 0 (no effect) to 100 (complete control), visual, 12 to 14 days, preemergence
[22] = 125 g ai/ha, scale 0 (no effect) to 100 (complete control), visual, 12 to 14 days

| Structure (SMILES) | Rice plant response rating (rice; [3]) | Rice plant response rating (rice; [4]) | Plant response rating, Rice (rice; [6]) | Barnyardgrass plant response rating (barnyardgrass [1]; [3]) | Barnyardgrass plant response rating (barnyardgrass [1]; [4]) | Plant response rating, Barnyardgrass (barnyardgrass [1]; [6]) | Plant response rating (0 = no effect, 100 = complete control), Crabgrass, Large (large crabgrass; 62 g ai/ha, preemergence) | Plant response rating, Crabgrass, Large (large crabgrass; [8]) | Crabgrass, Large plant response rating (large crabgrass; [11]) | Barnyardgrass plant response rating (barnyardgrass [2]) | Plant response rating (0 = no effect, 100 = complete control), Nutsedge, Yellow (yellow nutsedge; 62 g ai/ha, preemergence) | Plant response rating, Nutsedge, Yellow (yellow nutsedge; [8]) | Nutsedge, Yellow plant response rating (yellow nutsedge; [11]) | Plant response rating, Wheat (wheat) | Plant response rating (0 = no effect, 100 = complete control), Nightshade (eastern black nightshade) | Plant response rating, Nightshade (eastern black nightshade; [14]) | Nightshade plant response rating (eastern black nightshade) | Plant response rating (0 = no effect, 100 = complete control), Cupgrass, Woolly (woolly cupgrass; 62 g ai/ha, preemergence) | Plant response rating, Cupgrass, Woolly (woolly cupgrass; [8]) | Cupgrass, Woolly plant response rating (woolly cupgrass; [11]) | other results |
| --- | --- | --- | --- | --- | --- | --- | --- | --- | --- | --- | --- | --- | --- | --- | --- | --- | --- | --- | --- | --- | --- |
| CCNC(=O)c1cccc(NC(=O)c2cc(C(C)(C)C)nn2CC(F)(F)F)c1 [Compound 31] | 0 | 10 | 50 | 0 | 30 | 75 | 90 | 100 | 100 | 80 | 0 | 0 | 0 | 10 | 90 | 100 | 100 | 0 | 30 | 60 | Plant response rating, Rice (rice; [5]): 40; Plant response rating, Barnyardgrass (barnyardgrass [1]; [5]): 70; Plant response rating, Crabgrass, Large (large crabgrass; [7]): 100; Crabgrass, Large plant response rating (large crabgrass; Postemergence, scale 0 to 100): 70; Plant response rating, Crabgrass, Large (large crabgrass; [9]): 60; Plant response rating, Crabgrass, Large (large crabgrass; [10]): 60; Plant response rating, Crabgrass, Large (large crabgrass; [12]): 50; Foxtail, Giant plant response rating (giant foxtail; Postemergence, 250 g ai/ha, 0 to 100 scale, 0 no effect, 100 complete control): 45; Plant response rating, Foxtail, Giant (giant foxtail; Postemergence, 1000 g ai/ha, 0 to 100 scale, 0 no effect, 100 complete control): 70; Foxtail, Giant plant response rating (giant foxtail; Preemergence, 1000 g ai/ha, visual rating, 0 to 100 scale (0 no effect, 100 complete control)): 50; Foxtail, Giant plant response rating (giant foxtail; preemergence, 250 g ai/ha, visual injury, 0 to 100 scale (0 no effect, 100 complete control)): 20; Nutsedge, Yellow plant response rating (yellow nutsedge; Postemergence, scale 0 to 100): 30; Plant response rating, Nutsedge, Yellow (yellow nutsedge; [10]): 30; Plant response rating, Nutsedge, Yellow (yellow nutsedge; [13]): 0; Plant response rating, Nutsedge, Yellow (yellow nutsedge; [12]): 0; Plant response rating, Cupgrass, Woolly (woolly cupgrass; [7]): 0; Cupgrass, Woolly plant response rating (woolly cupgrass; Postemergence, scale 0 to 100): 60; Plant response rating, Cupgrass, Woolly (woolly cupgrass; [9]): 30; Plant response rating, Cupgrass, Woolly (woolly cupgrass; [10]): 40; Plant response rating, Cupgrass, Woolly (woolly cupgrass; [12]): 30 |
| C=Cn1nc(C(C)(C)C)cc1C(=O)Nc1cccc(C(=O)N(CC)CC)c1 [Compound 34] | 0 | 0 | 55 | 0 | 35 | 65 | 80 | 100 | 100 | 80 | 0 | 0 | 0 | 30 | 10 | 90 | 100 | 10 | 70 | 70 | Plant response rating, Rice (rice; [5]): 50; Plant response rating, Barnyardgrass (barnyardgrass [1]; [5]): 45; Plant response rating, Crabgrass, Large (large crabgrass; [7]): 100; Crabgrass, Large plant response rating (large crabgrass; Postemergence, scale 0 to 100): 60; Plant response rating, Crabgrass, Large (large crabgrass; [9]): 40; Plant response rating, Crabgrass, Large (large crabgrass; [10]): 60; Plant response rating, Crabgrass, Large (large crabgrass; [12]): 20; Plant response rating, Foxtail, Giant (giant foxtail; [15]): 30; Plant response rating, Foxtail, Giant (giant foxtail; [16]): 40; Foxtail, Giant plant response rating (giant foxtail; [17]): 40; Foxtail, Giant plant response rating (giant foxtail; [18]): 85; Nutsedge, Yellow plant response rating (yellow nutsedge; Postemergence, scale 0 to 100): 20; Plant response rating, Nutsedge, Yellow (yellow nutsedge; [10]): 0; Plant response rating, Nutsedge, Yellow (yellow nutsedge; [13]): 0; Plant response rating, Nutsedge, Yellow (yellow nutsedge; [12]): 0; Plant response rating, Cupgrass, Woolly (woolly cupgrass; [7]): 20; Cupgrass, Woolly plant response rating (woolly cupgrass; Postemergence, scale 0 to 100): 90; Plant response rating, Cupgrass, Woolly (woolly cupgrass; [9]): 60; Plant response rating, Cupgrass, Woolly (woolly cupgrass; [10]): 80; Plant response rating, Cupgrass, Woolly (woolly cupgrass; [12]): 40 |
| CCn1nc(C(C)(C)C)cc1C(=O)Nc1cccc(C(=O)NCC2CC2)c1 [Compound 62] | 15 | 25 | 65 | 5 | 10 | 55 | 40 | 90 |  | 70 | 0 | 40 |  | 10 | 80 | 95 |  | 0 | 20 |  | Rice plant response rating (rice; [19]): 45; Barnyardgrass plant response rating (barnyardgrass [1]; [19]): 30; Plant response rating, Crabgrass, Large (large crabgrass; [20]): 5; Plant response rating, Crabgrass, Large (large crabgrass; [21]): 90; Plant response rating, Foxtail, Giant (giant foxtail; [15]): 55; Plant response rating, Foxtail, Giant (giant foxtail; [16]): 85; Foxtail, Giant plant response rating (giant foxtail; [17]): 75; Foxtail, Giant plant response rating (giant foxtail; [18]): 100; Plant response rating, Nutsedge, Yellow (yellow nutsedge; [20]): 0; Plant response rating, Nutsedge, Yellow (yellow nutsedge; [21]): 10; Wheat plant response rating (wheat): 0; Plant response rating, Nightshade (eastern black nightshade; 31 g ai/ha, scale 0 to 100): 80; Plant response rating, Nightshade (eastern black nightshade; [22]): 90; Plant response rating, Cupgrass, Woolly (woolly cupgrass; [20]): 0; Plant response rating, Cupgrass, Woolly (woolly cupgrass; [21]): 0 |
| CCN1CCc2c(NC(=O)c3cc(C(C)(C)C)nn3CC)cccc2C1=O [Compound 63] | 0 | 0 | 50 | 0 | 0 | 50 | 10 | 90 | 100 | 80 | 0 | 0 | 40 | 10 | 70 | 95 | 95 | 0 | 0 | 5 | Rice plant response rating (rice; [19]): 15; Barnyardgrass plant response rating (barnyardgrass [1]; [19]): 20; Plant response rating, Crabgrass, Large (large crabgrass; [21]): 85; Plant response rating, Foxtail, Giant (giant foxtail; [15]): 50; Plant response rating, Foxtail, Giant (giant foxtail; [16]): 80; Foxtail, Giant plant response rating (giant foxtail; [17]): 95; Foxtail, Giant plant response rating (giant foxtail; [18]): 100; Plant response rating, Nutsedge, Yellow (yellow nutsedge; [21]): 0; Wheat plant response rating (wheat): 10; Plant response rating, Nightshade (eastern black nightshade; [22]): 90; Plant response rating, Cupgrass, Woolly (woolly cupgrass; [21]): 0 |
